Experimental data from US10717968B2, “Polymerases for nucleotide analogue incorporation” (Pacific Biosciences of California, Inc., priority 2005, dated 2020).

How the values were obtained:
Assay type in all cases: biochemical
A488dC4P [1] = test: Assay with a single analogue at low concentration (10 μM) and three native nucleotides, A488dC4P; settings: single analogue at 10 μM and three native nucleotides
Protocol: (§1) The Φ29 DNA polymerase (parental enzyme or mutant) was preincubated with DNA template (72 nucleotide circular DNA including mostly repetitive sequence AGTC) with annealed DNA primer. The preincubation mix includes three native nucleotides (dTTP, dATP and dGTP) and a terminal labeled nucleotide analogue (A488dC4P or A568dC4P) at 10 μM concentration. After a short preincubation, the reaction was started with MnCl2. The reaction was stopped with EDTA, and the products were separated using agarose gel electrophoresis and stained with SYBR Gold (Invitrogen). The average length of the DNA generated with DNA polymerase was determined and used to estimate the polymerization rate. See, e.g., Table 2 Columns G and H.

Alexa555-C2-dT4P = test: Km and Vmax versus analogue Alexa555-C2-dT4P
Protocol: (§2) Km and Vmax were determined for exemplary recombinant Phi29 polymerases and various nucleotide analogues.

A488dC4P [2] = test: Nucleotide analogue concentration dependence of the polymerization rate, A488dC4P; settings: for A488dC4P, kel / Km: circular AGTC template, dTTP, dATP, dGTP 20 μM each; for Km as % of the Km of N62D Φ29 for A488dC4P: relative to N62D Φ29, from Table 2
Protocol: (§3) The most promising polymerase mutants are characterized by determination of the polymerization rate and Km for A488dC4P and A568dC4P and a subset of natural nucleotides (dATP, dGTP and dTTP), using a circular template (AGTC). Velocity is measured at several different concentrations of the analogs, A488dC4P (a representative good substrate) and A568dC4P (a representative less preferred substrate).
(§4) The Φ29 DNA polymerase (parental enzyme or mutant) was preincubated with a DNA template (72 nucleotide circular DNA including mostly repetitive sequence AGTC) with annealed DNA primer. The preincubation mix includes also three native nucleotides (dTTP, dATP and dGTP 20 μM each) and various concentrations of the terminally labeled analogue (A488dC4P or A568dC4P). All subsequent steps were basically as described above in the section entitled “Assay with a single analogue at low concentration (10 μM) and three native nucleotides.” An average length of the DNA products generated with DNA polymerase at an individual analogue concentration was determined, and the results were fitted with the equation k=kel*[S]*(Kd+[S])^−1 where k is the observed polymerization rate, kel is the polymerization rate at saturating substrate concentration (kel measures incorporation of multiple residues), and [S] is substrate concentration. See, e.g., Table 2 Columns C, D, E, and F.

Alexa633-O-dC4P = test: Km and Vmax versus analogue Alexa633-O-dC4P; settings: Alexa633-O-dC4P (A633dC4P)
Protocol: as §2

A568dC4P [3] = test: Assay with a single analogue at low concentration (10 μM) and three native nucleotides, A568dC4P; settings: single analogue at 10 μM and three native nucleotides
Protocol: as §1

[4] = test system: natural (native) nucleotides; test: Initial characterization: specific activity with natural (native) nucleotides
Protocol: The recombinant polymerase is initially evaluated on the quality of the protein preparation and basic catalytic activity. The polymerase's activity is analyzed with natural (native) nucleotides, and its specific activity (units/mg) is determined. Only catalytically competent mutants are selected for the next steps.

A633dC4P = test: Screening: rate with A633dC4P and dA, dG, dTTP; settings: for Rate High: 25 μM A633dC4P with 20 μM dA; for Ratio (Low/High): (rate at 5 μM A633dC4P)/(rate at 25 μM A633dC4P), each with 20 μM dA, 1 mM MnCl2, higher ratio = lower Km
dTTP, dATP, dGTP = test: Assay with three native nucleotides (dGTP, dTTP and dATP); settings: three native nucleotides at 20 μM; circular template, no G residues
Protocol: as §1
The Φ29 DNA polymerase (parental enzyme or mutant) was preincubated with DNA template (circular DNA including mostly repetitive sequence CAT, no G residues) with annealed DNA primer; the preincubation mix includes three native nucleotides (dTTP, dATP and dGTP). All subsequent steps were basically as described above in the section entitled “Assay with a single analogue at low concentration (10 μM) and three native nucleotides.” See, e.g., Table 2 Column B.

[5] = test system: A488dA4P, A633dC4P, A546dG4P, A594dT4P; test: Assay with four terminally labeled nucleotide analogs; settings: four terminally labeled analogs all at 10 μM
Protocol: Polymerization rate (bases/min) with four analogues at 10 μM (A488dA4P, A633dC4P, A546dG4P and A594dT4P) and circular template (AGTC, a 72mer circular template largely consisting of a repeating AGTC motif) is determined.
The procedure is basically as described above in the section entitled “Assay with a single analogue at low concentration (10 μM) and three native nucleotides,” with the exception that in this assay all nucleotides are terminally labeled (A488dA4P, A633dC4P, A546dG4P, A594dT4P all at 10 μM). See, e.g., Table 2 Column I.

[6] = test system: Alexa488-O-dA4P, FAM-Alexa532-O-dG4P, FAM-Alexa594-O-dT4P, Alexa633-O-dC4P; test: Screening: rate with set of four nucleotide analogues; settings: four analogues at 10 μM each, 1 mM MnCl2
[7] = test system: DNA template (72 nucleotide circular DNA) with annealed DNA primer; test: Processivity assay; settings: dNTP, MnCl2, heparin trap, 20 min; 1.0 minus Poff
Source text: The processivity (dissociation/kb) of the polymerase is estimated in a primer extension reaction performed in the presence of “Trap” (unlabeled competitor DNA or heparin). The processivity assay is designed to select mutants that retain the capability to synthesize a long DNA product in a continuous polymerization run (without polymerization reinitiation) with natural nucleotides. Mutants with a significant decrease in processivity are not selected for the next step.
The Φ29 DNA polymerase (parental enzyme or mutant) was preincubated with DNA template (72 nucleotide circular DNA including mostly repetitive sequence AGTC) with annealed DNA primer. After a short preincubation, the reaction was started with a starting mix including MnCl2, dNTP and heparin. Including the heparin in the reaction prevents polymerization from reinitiating after the polymerase dissociates from the template/primer, so that all generated DNA products are a result of continuous polymerization runs. After 20 min incubation, the reaction was stopped with EDTA and the products were separated using agarose gel electrophoresis and stained with SYBR Gold (Invitrogen). The DNA products were analyzed basically as described in Bibillo A, Eickbush T H. J Biol Chem. 2002 Sep. 20; 277(38):34836-45, Epub 2002 Jul. 5. The results were fitted with single exponential equation A*exp(−Poff*kb) where A is amplitude, Poff is the probability of premature polymerase dissociation, and kb is DNA length (1000 nucleotides). The probability of chain elongation (processivity) can be readily calculated by subtracting the Poff value from 1.0. See, e.g., Table 2 Column J.

A568dC4P [8] = test: Nucleotide analogue concentration dependence of the polymerization rate, A568dC4P; settings: for A568dC4P, kel / Km: circular AGTC template, dTTP, dATP, dGTP 20 μM each; for Km as % of the Km of N62D Φ29 for A568dC4P: relative to N62D Φ29, from Table 2
Protocol: as §3, §4

Alexa532-O-dG4P = test: Km and Vmax versus analogue Alexa532-O-dG4P
Protocol: as §2

A594-dT4P = test: FRET stopped flow assay, rates of binding and product release; settings: nucleotide analogue A594-dT4P
Protocol: Rates of binding and product release were determined for exemplary recombinant Phi29 polymerases with nucleotide analogue A594-dT4P using a FRET stopped flow assay as schematically illustrated in FIG. 7A. Results are depicted graphically in FIGS. 7B-D for Phi29 N62D (FIG. 7B), N62D:E375Y (FIG. 7C), and N62D:E375W (FIG. 7D).

Alexa568-dA4P = test: FRET stopped flow assay, branching rate; settings: dideoxy-terminated primer, native dATP trap
Protocol: Relative branching rate (dissociation of the analogue without incorporation, i.e., substrate dissociation) was also determined for exemplary recombinant Phi29 polymerases with nucleotide analogue Alexa568-dA4P (also called A568-dA4P), using a FRET stopped flow assay as schematically illustrated in FIG. 8A. In this technique, a template with a FRET donor dye compatible for FRET with the corresponding dye on the nucleotide analogue is employed. The primer has a dideoxy-termination at the 3′ end to prevent incorporation. The analogue is pre-mixed with the enzyme-template-dideoxy primer complex. In the stopped flow apparatus, this preformed complex is rapidly mixed with the corresponding native nucleotide (native dATP, in this example) in excess which serves as a “trap” to prevent rebinding of the analogue after it dissociates. The increase in donor dye fluorescence is monitored as a means of monitoring the dissociation/branching rate of the analogue.

Row | Substance | A488dC4P, V at 10 μM (A488dC4P [1]) | Km (Alexa555-C2-dT4P) [µM] | A488dC4P, kel (A488dC4P [2]) [bp/min] | Km (A488dC4P [2]) [µM] | Km (Alexa633-O-dC4P) [µM] | A568dC4P, V at 10 μM (A568dC4P [3]) | Specific Activity [4] | Rate High (A633dC4P) | Ratio (Low/High) (A633dC4P) | dTTP, dATP, dGTP (no G fork) V at 20 μM (dTTP, dATP, dGTP) | A488dA4P, A633dC4P, A546dG4P, A594dT4P, V at 10 μM [5] | Hz Rate [6] [Hz] | Processivity [7] [kb^−1] | Km (Alexa532-O-dG4P) [µM] | Product Release Rate (A594-dT4P) [s⁻¹] | Branching Rate (Alexa568-dA4P) [s⁻¹] | other results
1 | His-E375H-N62D: Phi 29 polymerase with E375H and N62D mutations (SEQ ID NOs:4, 25) | 411 | 15 | 950 | 8 | 17 | 366 | 10,945,000 units/mg | 510.1 | 0.445 | 780 | 123 | 9.4 | 0.9510 | – | – | – | Km as % of the Km of N62D Φ29 for A488dC4P (A488dC4P [2]): about 40%; A568dC4P, kel (A568dC4P [8]): 930; Km (A568dC4P [8]): 11 µM; Km as % of the Km of N62D Φ29 for A568dC4P (A568dC4P [8]): about 15%
2 | N62D: E375W: Phi29 polymerase with E375W and N62D mutations | – | 5 | – | – | 1.8 | – | – | 699.4 | 0.677 | – | – | 19.1 | – | 16 | 76 | 43 | rates of binding and product release compared with the parent enzyme (A594-dT4P): increased rates of binding and product release
3 | N62D: E375Y: Phi29 polymerase with E375Y and N62D mutations | – | 6.6 | – | – | 2.5 | – | – | 498.5 | 0.694 | – | – | 12.1 | – | 18 | 117 | 31 | rates of binding and product release compared with the parent enzyme (A594-dT4P): increased rates of binding and product release
4 | His-NipTuck_1-N62D: His-tagged N62D Phi 29 polymerase with deletion of residues 505-525 (SEQ ID NOs:12, 33) | 153 | – | 520 | 24 | – | 116 | 12,400,000 units/mg | 192.4 | 0.508 | 660 | 24 | 1.3 | 0.9585 | – | – | – | –
5 | His-E375S-N62D: Phi 29 polymerase with E375S and N62D mutations (SEQ ID NOs:5, 26) | 420 | – | 1190 | 15 | 16.5 | 332 | 10,961,000 units/mg | 528.4 | 0.335 | 940 | 74 | 5.9 | 0.9815 | 40 | – | – | Km as % of the Km of N62D Φ29 for A488dC4P (A488dC4P [2]): about 75%; A568dC4P, kel (A568dC4P [8]): 1300; Km (A568dC4P [8]): 28 µM; Km as % of the Km of N62D Φ29 for A568dC4P (A568dC4P [8]): about 38%
6 | N62D: N62D Phi29 DNA polymerase, parent enzyme in Tables 4, 6 and 7; tag not stated [reference compound] | – | 20 | – | – | 23 | – | – | – | – | – | – | – | – | 68 | 55 | 90 | –
7 | N62D: E375K: Phi 29 polymerase with E375K and N62D mutations (SEQ ID NOs:6, 27) | – | – | – | – | 12 | – | – | 516.1 | 0.425 | – | – | 6.2 | – | – | – | – | –
